Measurements as given in patent US4450269A, “Mono-5-substituted-3-chloro-4H-1,2,6-thiadiazin-4-one antifungal agents” (FMC Corporation, priority 1980, dated 1984).
Structures can show the parent of a compound that is named as a salt.

What was measured:
Cladosporium cucumerinum = test: Mycelial growth test; format: cell-based; conditions: CC; for inhibition at 5 ppm / inhibition at 10 ppm / inhibition at 40 ppm / inhibition at 20 ppm: Cladosporium cucumerinum, read-out: Percent Fungus Growth Inhibition; for inhibition at 5 ppm / inhibition at 10 ppm / inhibition at 40 ppm: 72 h; for inhibition at 20 ppm: CC20, 72 h; for Percent Fungus Growth Inhibition: 72 hours, hydrochloride
Excerpt: |CC = Cladosporium cucumerinum

Cercospora beticola = test: whole plant or invertebrate; conditions: in Beta vulgaris, foliar, 24 h, read-out: Percent Disease Control, curative, sugar beet leaf spot
Fusarium solani = test: Soil treatment, bean root rot; format: in vivo; conditions: Fusarium solani, soil, 336 h; 150 ppm suspension, 3.8 mg active per pot; read-out: Percent Disease Control, seed/soil, bean root rot
Experimental: In a similar manner the soil around a bean seedling was drenched with a sufficient amount of 150 ppm suspension of test chemical to provide 3.8 mg active per pot. Twenty-four hours later the soil was inoculated with a suspension of minced mycelium of Fusarium solani. The inoculated plants were then placed in a greenhouse, evaluated after fourteen days, and percent control of root rot damage calculated. The results, reported in Table III, indicate only a few of the compounds tested are effective in treating Bean Root Rot but that these provide a high degree of control.

Pyricularia oryzae = test: whole plant or invertebrate; format: in vivo; conditions: for pest or weed control at 150 ppm: Pyricularia oryzae, foliar, 24 h, read-out: Percent Disease Control, curative, rice blast, 150 ppm, 24 hours after inoculation

| SMILES | inhibition at 5 ppm (Cladosporium cucumerinum; 5 ppm) [%] | inhibition at 10 ppm (Cladosporium cucumerinum; 10 ppm) [%] | inhibition at 40 ppm (Cladosporium cucumerinum; 40 ppm) [%] | inhibition at 20 ppm (Cladosporium cucumerinum) [%] | pest or weed control at 150 ppm (Cercospora beticola) [%] | pest or weed control at 150 ppm, 3.8 mg/pot (Fusarium solani) [%] | pest or weed control at 150 ppm (Pyricularia oryzae) [%] | Percent Fungus Growth Inhibition (Cladosporium cucumerinum; 5 ppm) [%] | Percent Fungus Growth Inhibition (Cladosporium cucumerinum; 10 ppm) [%] | Percent Fungus Growth Inhibition (Cladosporium cucumerinum; 40 ppm) [%] | Percent Disease Control, curative, rice blast (Pyricularia oryzae; 150 ppm, 24 hours after inoculation, hydrochloride) [%] |
| --- | --- | --- | --- | --- | --- | --- | --- | --- | --- | --- | --- |
| O=c1c(Cl)nsnc1Oc1ccccc1 [Compound 2, 3-chloro-5-phenoxy-4H--1,2,6-thiadiazin-4-one] | 46 | 58 | 100 | 100 | 0 | 100 | 0 | – | – | – | – |
| Cc1ccc(Oc2nsnc(Cl)c2=O)cc1 [Compound 3, 3-chloro-5-(4-methylphenoxy)-4H--1,2,6-thiadiazin-4-one] | 58 | 67 | 100 | 100 | 0 | 80 | 0 | – | – | – | – |
| CC(C)(C)c1ccc(Oc2nsnc(Cl)c2=O)cc1 [Compound 4, 3-chloro-5-(4-tert-butylphnoxy)-4H--1,2,6-thiadiazin-4-one] | 0 | 9 | 45 | 27 | 0 | 0 | 95 | – | – | – | – |
| COc1ccc(Oc2nsnc(Cl)c2=O)cc1 [Compound 5, 3-chloro-5-(4-methoxyphenoxy)4H--1,2,6-thiadiazin-4-one] | 50 | 75 | 100 | 100 | 0 | 50 | 75 | – | – | – | – |
| CCCCOc1ccc(Oc2nsnc(Cl)c2=O)cc1 [Compound 6, 3-chloro-5-(4-n-butoxyphenoxy)-4H--1,2,6-thiadiazin-4-one] | 0 | 0 | 45 | 0 | 0 | 0 | 0 | – | – | – | – |
| CCOC(=O)c1ccc(Oc2nsnc(Cl)c2=O)cc1 [Compound 7, 3-chloro-5-(4-ethoxycarbonylphenoxy)-4H--1,2,6-thiadiazin-4-one] | 9 | 36 | 100 | 100 | 75 | 98 | 0 | – | – | – | – |
| CC(=O)Nc1ccc(Oc2nsnc(Cl)c2=O)cc1 [Compound 8, 5-(4-acetylaminophenoxy)-3-chloro-4H--1,2,6-thiadiazin-4-one] | 50 | 58 | 100 | 67 | 0 | 0 | 0 | – | – | – | – |
| O=c1c(Cl)nsnc1Oc1ccc([N+](=O)[O-])cc1 [Compound 9, 3-chloro-5-(4-nitrophenoxy)-4H--1,2,6-thiadiazin-4-one] | 54 | 75 | 100 | 92 | 75 | 0 | 90 | – | – | – | – |
| N#Cc1ccc(Oc2nsnc(Cl)c2=O)cc1 [Compound 10, 3-chloro-5-(4-cyanophenoxy)-4H--1,2,6-thiadiazin-4-one] | 9 | 45 | 100 | 100 | 95 | 0 | 0 | – | – | – | – |
| O=c1c(Cl)nsnc1Oc1ccc(F)cc1 [Compound 11, 3-chloro-5-(4-fluorophenoxy)-4H--1,2,6-thiadiazin-4-one] | 27 | 64 | 100 | 100 | 0 | 0 | 0 | – | – | – | – |
| O=c1c(Cl)nsnc1Oc1ccc(Cl)cc1 [Compound 12, 3-chloro-5-(4-chlorophenoxy)-4H--1,2,6-thiadiazin-4-one] | 63 | 58 | 100 | 71 | 95 | 0 | 75 | – | – | – | – |
| O=c1c(Cl)nsnc1Oc1cccc(Cl)c1 [Compound 13, 3-chloro-5-(3-chlorophenoxy)-4H--1,2,6-thiadiazin-4-one] | 58 | 67 | 100 | 100 | 98 | 75 | 0 | – | – | – | – |
| O=c1c(Cl)nsnc1Oc1ccccc1Cl [Compound 14, 3-chloro-5-(2-chlorophenoxy)-4H--1,2,6-thiadiazin-4-one] | 67 | 50 | 100 | 100 | 0 | 90 | 0 | – | – | – | – |
| O=c1c(Cl)nsnc1Oc1ccc(Br)cc1 [Compound 15, 3-chloro-5-(4-bromophenoxy)-4H--1,2,6-thiadiazin-4-one] | 9 | 55 | 100 | 82 | 0 | 0 | 95 | – | – | – | – |
| O=c1c(Cl)nsnc1Oc1ccc(Cl)c(Cl)c1 [Compound 16, 3-chloro-5-(3,4-dichlorophenoxy)-4H--1,2,6-thiadiazin-4-one] | 58 | 54 | 75 | 67 | 95 | 0 | 90 | – | – | – | – |
| O=c1c(Cl)nsnc1Oc1ccc(Cl)cc1Cl [Compound 17, 3-chloro-5-(2,4-dichlorophenoxy)-4H--1,2,6-thiadiazin-4-one] | 100 | 100 | 100 | 100 | 95 | 0 | 0 | – | – | – | – |
| O=c1c(Cl)nsnc1Oc1c(Cl)cccc1Cl [Compound 18, 3-chloro-5-(2,6-dichlorophenoxy)-4H--1,2,6-thiadiazin-4-one] | 83 | 100 | 100 | 100 | 98 | – | 0 | – | – | – | – |
| O=c1c(Cl)nsnc1Oc1cccc(Cl)c1Cl [Compound 19, 3-chloro-5-(2,3-dichlorophenoxy)-4H--1,2,6-thiadiazin-4-one] | 100 | 100 | 100 | 100 | 0 | 0 | 0 | – | – | – | – |
| Nc1ccc(Oc2nsnc(Cl)c2=O)cc1 [Compound 27, 5-(4-aminophenoxy)-3-chloro-4H--1,2,6-thiadiazine-4-one hydrochloride] | – | – | – | – | – | – | – | 31 | 40 | 54 | 95 |
| O=c1c(Cl)nsnc1Oc1ccc(O)cc1 [Compound 35, 3-chloro-5-(4-hydroxyphenoxy)-4H-1,2,6-thiadiazin-4-one] | 0 | 0 | 92 | 23 | – | – | 0 | – | – | – | – |
| O=C(Nc1ccccc1)Oc1ccc(Oc2nsnc(Cl)c2=O)cc1 [Compound 37, 3-chloro-5-[4-(phenylaminocarbonyloxy)phenoxy]-4H-1,2,6,-thiadiazin-4-one] | 23 | 29 | 52 | 35 | – | – | 0 | – | – | – | – |
| O=C(OCc1ccccc1)Oc1ccc(Oc2nsnc(Cl)c2=O)cc1 [Compound 38, 3-chloro-5-[4-(phenylmethoxycarbonyloxy)phenoxyl]-4H-1,2,6-thiadiazin-4-one] | 0 | 0 | 26 | 0 | – | – | 0 | – | – | – | – |
| C[S+]([O-])c1ccc(Oc2nsnc(Cl)c2=O)cc1 (stereo not drawn) [Compound 40, 3-chloro-5-[(4-methylsulfinyl)phenoxy]-4H-1,2,6,-thiadiazin-4-one] | 0 | 48 | 48 | 32 | – | – | 0 | – | – | – | – |
| N#CCc1ccc(Oc2nsnc(Cl)c2=O)cc1 [Compound 46, 3-chloro-5-[(4-cyanomethyl)-phenoxy]4H--1,2,6-thiadiazin-4-one] | 0 | 0 | 100 | 46 | – | – | 0 | – | – | – | – |
| CC(=O)c1cccc(Oc2nsnc(Cl)c2=O)c1 [Compound 48, 3-(3-acetylphenoxy)-5-chloro-4H--1,2,6-thiadiazin-4-one] | 29 | 33 | 100 | 50 | – | 95 | 50 | – | – | – | – |
| COc1ccc(Cl)c(Oc2nsnc(Cl)c2=O)c1 [Compound 51, 3-chloro-5-[(2-chloro-5-methoxy)phenoxy]-4H--1,2,6-thiadiazin-4-one] | 8 | 26 | 100 | 85 | – | – | 0 | – | – | – | – |
| COc1cc(Cl)cc(Oc2nsnc(Cl)c2=O)c1 [Compound 52, 3-chloro-5-[(3-chloro-5-methoxy)phenoxy]-4H--1,2,6-thiadiazin-4-one] | 15 | 46 | 77 | 88 | – | – | 95 | – | – | – | – |
| O=c1c(Cl)nsnc1Oc1ccc([N+](=O)[O-])cc1Cl [Compound 53, 3-chloro-5-(2-chloro-4-nitrophenoxy)-4H--1,2,6-thiadiazin-4-one] | 45 | 61 | 65 | 71 | – | – | 0 | – | – | – | – |
| COc1cc(Oc2nsnc(Cl)c2=O)cc(OC)c1C(C)=O [Compound 61, 3-[(4-acetyl-3,5-dimethoxy)-phenoxy]-5-chloro-4H--1,2,6-thiadiazin-4-one] | 6 | 23 | 52 | 32 | – | – | 0 | – | – | – | – |
